Test results: patent US8530493B2, “Indolopyridines as Eg5 kinesin modulators” (4SC AG, priority 2006, dated 2013)

What follows are compounds tested on RKO p21 uninduced (proliferating) colon adenocarcinoma cells (assay: Alamar Blue cell viability assay, RKO p21 uninduced (proliferating)). Conditions: Homo sapiens, Table B3, anti-proliferative/cytotoxic activity, 72 hours, read-out: −log EC50 RKO p21 uninduced (proliferating) (converted).
Format: cell-based
Summary of the method: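 Viability read by Alamar Blue fluorescence (ex 544, em 590 nm), normalised to untreated wells, after 72 h, 37° C, 5% CO2 compound exposure in triplicate. Cells were uninduced (no Ponasterone A), proliferating RKO colon carcinoma p27 or p21 subclones in DMEM with 10% FCS; values are −log EC50 (mol/l).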

Structure (SMILES) | EC50 [nM]
CNCCN1C(=O)N2[C@H](c3cccc(O)c3)c3[nH]c4cc(F)c(OC)cc4c3C[C@@]2(C)C1=O (racemic) [Example 248, (3aSR,10RS)-7-Fluoro-10-(3-hydroxy-phenyl)-6-methoxy-3a-methyl-2-(2-methylamino-ethyl)-3a,4,9,10-tetrahydro-2,9,10a-triaza-cyclopenta[b]fluorene-1,3-dione] | 39.8 to 251
CCN(CC)CCN1C(=O)N2[C@H](c3cccc(O)c3)c3[nH]c4ccc(Br)cc4c3C[C@@]2(C)C1=O (racemic) [Example 385, (3aSR,10RS)-6-Bromo-2-(2-diethylamino-ethyl)-10-(3-hydroxy-phenyl)-3a-methyl-3a,4,9,10-tetrahydro-2,9,10a-triaza-cyclopenta[b]fluorene-1,3-dione] | ≤ 39.8
C[C@@]12Cc3c([nH]c4ccc(Cl)cc34)[C@@H](c3cccc(O)c3)N1C(=O)N(CCCN1CCCCC1)C2=O (racemic) [Example 181, (3aSR,10RS)-6-Chloro-10-(3-hydroxy-phenyl)-3a-methyl-2-(3-piperidin-1-yl-propyl)-3a,4,9,10-tetrahydro-2,9,10a-triaza-cyclopenta[b]fluorene-1,3-dione] | ≤ 39.8
COc1cc2c3c([nH]c2cc1F)[C@@H](c1cccc(O)c1)N1C(=O)N(CCCNCC(C)C)C(=O)[C@]1(C)C3 (racemic) [Example 332, (3aSR,10RS)-7-Fluoro-10-(3-hydroxy-phenyl)-2-(3-isobutylamino-propyl)-6-methoxy-3a-methyl-3a,4,9,10-tetrahydro-2,9,10a-triaza-cyclopenta[b]fluorene-1,3-dione] | 39.8 to 251
COc1cc2c3c([nH]c2cc1F)[C@@H](c1cccc(O)c1)N1C(=O)N(CCCN2CC=CC2)C(=O)[C@]1(C)C3 (racemic) [Example 323, (3aSR,10RS)-2-[3-(2,5-Dihydro-pyrrol-1-yl)-propyl]-7-fluoro-10-(3-hydroxy-phenyl)-6-methoxy-3a-methyl-3a,4,9,10-tetrahydro-2,9,10a-triaza-cyclopenta[b]fluorene-1,3-dione] | 39.8 to 251
CCN(CCOC)CCN1C(=O)N2[C@H](c3cccc(O)c3)c3[nH]c4ccc(OC(F)F)cc4c3C[C@@]2(C)C1=O (racemic) [Example 289, (3aSR,10RS)-6-(1,1-Difluoro-methoxy)-2-{2-[ethyl-(2-methoxy-ethyl)-amino]-ethyl}-10-(3-hydroxy-phenyl)-3a-methyl-3a,4,9,10-tetrahydro-2,9,10a-triaza-cyclopenta[b]fluorene-1,3-dione] | 39.8 to 251
CCN(CC)CCN1C(=O)N2[C@H](c3cccc(O)c3)c3[nH]c4ccc(OC(F)F)cc4c3C[C@@]2(C)C1=O (racemic) [Example 276, (3aSR,10RS)-2-(2-Diethylamino-ethyl)-6-(1,1-difluoro-methoxy)-10-(3-hydroxy-phenyl)-3a-methyl-3a,4,9,10-tetrahydro-2,9,10a-triaza-cyclopenta[b]fluorene-1,3-dione] | ≤ 39.8
C[C@@]12Cc3c([nH]c4ccc(OC(F)F)cc34)[C@@H](c3cccc(O)c3)N1C(=O)N(CCN1CCCCCC1)C2=O (racemic) [Example 282, (3aSR,10RS)-2-(2-Azepan-1-yl-ethyl)-6-(1,1-difluoro-methoxy)-10-(3-hydroxy-phenyl)-3a-methyl-3a,4,9,10-tetrahydro-2,9,10a-triaza-cyclopenta[b]fluorene-1,3-dione] | 39.8 to 251
CCOc1ccc2[nH]c3c(c2c1)C[C@@]1(C)C(=O)N(CCN2CC=CCC2)C(=O)N1[C@@H]3c1cccc(O)c1 (racemic) [Example 165, (3aSR,10RS)-2-[2-(3,6-Dihydro-2H-pyridin-1-yl)-ethyl]-6-ethoxy-10-(3-hydroxy-phenyl)-3a-methyl-3a,4,9,10-tetrahydro-2,9,10a-triaza-cyclopenta[b]fluorene-1,3-dione] | 39.8 to 251
CCN(CCO)CCN1C(=O)N2[C@H](c3cccc(O)c3)c3[nH]c4cc(F)c(Cl)cc4c3C[C@@]2(C)C1=O (racemic) [Example 349, (3aSR,10RS)-6-Chloro-2-{2-[ethyl-(2-hydroxy-ethyl)-amino]-ethyl}-7-fluoro-10-(3-hydroxy-phenyl)-3a-methyl-3a,4,9,10-tetrahydro-2,9,10a-triaza-cyclopenta[b]fluorene-1,3-dione] | 39.8 to 251
CNCCN1C(=O)N2[C@H](c3cccc(O)c3)c3[nH]c4ccc(Br)cc4c3C[C@@]2(C)C1=O (racemic) [Example 394, (3aSR,10RS)-6-Bromo-10-(3-hydroxy-phenyl)-3a-methyl-2-(2-methylamino-ethyl)-3a,4,9,10-tetrahydro-2,9,10a-triaza-cyclopenta[b]fluorene-1,3-dione] | ≤ 39.8
C[C@@]12Cc3c([nH]c4ccc(OC(F)F)cc34)[C@@H](c3cccc(O)c3)N1C(=O)N(CCCNCCO)C2=O (racemic) [Example 201, (3aSR,10RS)-6-(1,1-Difluoro-methoxy)-2-[3-(2-hydroxy-ethylamino)-propyl]-10-(3-hydroxy-phenyl)-3a-methyl-3a,4,9,10-tetrahydro-2,2,10a-triaza-cyclopenta[b]fluorene-1,3-dione] | 39.8 to 251
CCNCCCN1C(=O)N2[C@H](c3cccc(O)c3)c3[nH]c4ccc(OCC)cc4c3C[C@@]2(C)C1=O (racemic) [Example 187, (3aSR,10RS)-6-Ethoxy-2-(3-ethylamino-propyl)-10-(3-hydroxy-phenyl)-3a-methyl-3a,4,9,10-tetrahydro-2,9,10a-triaza-cyclopenta[b]fluorene-1,3-dione] | 39.8 to 251
C[C@@]12Cc3c([nH]c4ccc(OC(F)F)cc34)[C@@H](c3cccc(O)c3)N1C(=O)N(CCNC1CC1)C2=O (racemic) [Example 286, (3aSR,10RS)-2-(2-Cyclopropylamino-ethyl)-6-(1,1-difluoro-methoxy)-10-(3-hydroxy-phenyl)-3a-methyl-3a,4,9,10-tetrahydro-2,9,10a-triaza-cyclpenta[b]fluorene-1,3-dione] | 39.8 to 251
C[C@@]12Cc3c([nH]c4cc(F)c(Cl)cc34)[C@@H](c3cccc(O)c3)N1C(=O)N(CCCN1CC=CCC1)C2=O (racemic) [Example 480, (3aSR,10RS)-6-Chloro-2-[3-(3,6-dihydro-2H-pyridin-1-yl)-propyl]-7-fluoro-10-(3-hydroxy-phenyl)-3a-methyl-3a,4,9,10-tetrahydro-2,9,10a-triaza-cyclopenta[b]fluorene-1,3-dione] | 39.8 to 251
C[C@@]12Cc3c([nH]c4ccc(OC(F)F)cc34)[C@@H](c3cccc(O)c3)N1C(=O)N(CCCN1CCCC1)C2=O (racemic) [Example 237, (3aSR,10RS)-6-(1,1-Difluoro-methoxy)-10-(3-hydroxy-phenyl)-3a-methyl-2-(3-pyrrolidin-1-yl-propyl)-3a,4,9,10-tetrahydro-2,9,10a-triaza-cyclopenta[b]fluorene-1,3-dione] | ≤ 39.8
CCN(C)CCN1C(=O)N2[C@H](c3cccc(O)c3)c3[nH]c4cc(F)c(OC)cc4c3C[C@@]2(C)C1=O (racemic) [Example 257, (3aSR,10RS)-2-[2-(Ethyl-methyl-amino)-ethyl]-7-fluoro-10-(3-hydroxy-phenyl)-6-methoxy-3a-methyl-3a,4,9,10-tetrahydro-2,9,10a-triaza-cyclopenta[b]fluorene-1,3-dione] | 39.8 to 251
CCNCCCN1C(=O)N2[C@H](c3cccc(O)c3)c3[nH]c4cc(F)c(Cl)cc4c3C[C@@]2(C)C1=O (racemic) [Example 457, (3aSR,10RS)-6-Chloro-2-(3-ethylamino-propyl)-7-fluoro-10-(3-hydroxy-phenyl)-3a-methyl-3a,4,9,10-tetrahydro-2,9,10a-triaza-cyclopenta[b]fluorene-1,3-dione] | 39.8 to 251
CC(=O)N1CCN(CCN2C(=O)N3[C@H](c4cccc(O)c4)c4[nH]c5ccc(OC(F)F)cc5c4C[C@@]3(C)C2=O)CC1 (racemic) [Example 295, (3aSR,10RS)-2-[2-(4-Acetyl-piperazin-1-yl)-ethyl]-6-(1,1-difluoro-methoxy)-10-(3-hydroxy-phenyl)-3a-methyl-3a,4,9,10-tetrahydro-2,9,10a-triaza-cyclopenta[b]fluorene-1,3-dione] | 39.8 to 251
COc1ccc2[nH]c3c(c2c1F)C[C@@]1(C)C(=O)N(CCNC2CCC2)C(=O)N1[C@@H]3c1cccc(O)c1 (racemic) [Example 413, (3aSR,10RS)-2-(2-Cyclobutylamino-ethyl)-5-fluoro-10-(3-hydroxy-phenyl)-6-methoxy-3a-methyl-3a,4,9,10-tetrahydro-2,9,10a-triaza-cyclopenta[b]fluorene-1,3-dione] | 39.8 to 251
CCOc1ccc2[nH]c3c(c2c1)C[C@@]1(C)C(=O)N(CCCN2CCC(C)CC2)C(=O)N1[C@@H]3c1cccc(O)c1 (racemic) [Example 224, (3aSR,10RS)-6-Ethoxy-10-(3-hydroxy-phenyl)-3a-methyl-2-[3-(4-methyl-piperidin-1-yl)-propyl]-3a,4,9,10-tetrahydro-2,9,10a-triaza-cyclopenta[b]fluorene-1,3-dione] | 39.8 to 251
C[C@@]12Cc3c([nH]c4cc(F)c(Cl)cc34)[C@@H](c3cccc(O)c3)N1C(=O)N(CCCN1CCCCC1)C2=O (racemic) [Example 478, (3aSR,10RS)-6-Chloro-7-fluoro-10-(3-hydroxy-phenyl)-3a-methyl-2-(3-piperidin-1-yl-propyl)-3a,4,9,10-tetrahydro-2,9,10a-triaza-cyclopenta[b]fluorene-1,3-dione] | ≤ 39.8
CCOc1ccc2[nH]c3c(c2c1)C[C@@]1(C)C(=O)N(CCN(CC)CCO)C(=O)N1[C@@H]3c1cccc(O)c1 (racemic) [Example 298, (3aSR,10RS)-6-Ethoxy-2-{2-[ethyl-(2-hydroxy-ethyl)-amino]-ethyl}-10-(3-hydroxy-phenyl)-3a-methyl-3a,4,9,10-tetrahydro-2,9,10a-triaza-cyclopenta[b]fluorene-1,3-dione] | 39.8 to 251
